ChEMBL document CHEMBL4371007, “Biased Ligands of G Protein-Coupled Receptors (GPCRs): Structure-Functional Selectivity Relationships (SFSRs) and Therapeutic Potential” (J Med Chem, 2018)
Where a SMILES comes first, the peptide text is derived from it. Bridges are numbered along the chain shown (N, C = ends). [ ]: non-standard residue; d: D form. The star is where a group is joined. X1 = C[C@@H](NC(=O)[C@@H]1CCCN1C(=O)[C@H](Cc1cnc[nH]1)NC[C@H](CCCCN)N*)C(=O)O; Sar = CNCC(=O)O

Experiments:
[1] = target: T1, Metabotropic glutamate receptor 5 (Rattus norvegicus, UniProt P31424); assay: Positive allosteric modulation of rat mGlu5 receptor expressed in HEK293 cells assessed as increase in calcium mobilization after 60 secs in presence of glutamate by Fluo-4 AM dye-based fluorescence assay; format: functional, cell-based
Apelin receptor [2] = target: T2, Apelin receptor (Homo sapiens, UniProt P35414); assay: Induction of human APJ receptor internalization by cell based assay
T2 sequence (P35414 whole entry): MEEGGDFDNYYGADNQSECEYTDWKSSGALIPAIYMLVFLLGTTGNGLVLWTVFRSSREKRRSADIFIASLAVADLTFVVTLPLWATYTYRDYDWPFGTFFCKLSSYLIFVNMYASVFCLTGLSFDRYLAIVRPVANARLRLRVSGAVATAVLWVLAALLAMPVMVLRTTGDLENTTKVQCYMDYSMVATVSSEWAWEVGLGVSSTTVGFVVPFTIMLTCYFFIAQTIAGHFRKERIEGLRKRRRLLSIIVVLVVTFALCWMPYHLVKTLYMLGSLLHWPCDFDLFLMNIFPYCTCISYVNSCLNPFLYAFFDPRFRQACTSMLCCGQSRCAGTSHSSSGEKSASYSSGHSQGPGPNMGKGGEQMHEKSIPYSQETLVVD

Apelin receptor [3] = target: T2, Apelin receptor; assay: Agonist activity at human APJ receptor assessed as increase in beta-arrestin recruitment
Apelin receptor [4] = target: T2, Apelin receptor; assay: Agonist activity at human APJ receptor by saphenous vein contraction assay
D(2) dopamine receptor [5] = target: T3, D(2) dopamine receptor (Homo sapiens, UniProt P14416); assay: Agonist activity at human dopamine D2long receptor (unknown origin) expressed in HEK293T cells co-expressing TEV fused-beta-Arrestin2 and GRK2 assessed as increase in beta-arrestin-2 recruitment at 1 uM after overnight incubation by Tango assay relative to control; format: cell-based
D(2) dopamine receptor [6] = target: T3, D(2) dopamine receptor; assay: Agonist activity at human dopamine D2long receptor (unknown origin) expressed in HEK293T cells co-expressing TEV fused-beta-Arrestin2 and GRK2 assessed as increase in beta-arrestin-2 recruitment after overnight incubation by Tango assay; format: cell-based
D(2) dopamine receptor [7] = target: T3, D(2) dopamine receptor; assay: Agonist activity at dopamine D2 receptor (unknown origin) expressed in HEK293T cells co-expressing luciferase based cAMP biosensor assessed as inhibition of forskolin-mediated cAMP accumulation at 1 uM after 15 mins by microbeta luminescence counting assay relative to control; format: functional, cell-based
D(2) dopamine receptor [8] = target: T3, D(2) dopamine receptor; assay: Ratio of EC50 for dopamine D2 receptor (unknown origin) expressed in HEK293T cells co-expressing luciferase based cAMP biosensor assessed as inhibition of forskolin-mediated cAMP accumulation to EC50 for human dopamine D2long receptor (unknown origin) expressed in HEK293T cells co-expressing TEV fused-beta-Arrestin2 and GRK2 assessed as increase in beta-arrestin-2 recruitment; format: functional, cell-based
D(2) dopamine receptor [9] = target: T3, D(2) dopamine receptor; assay: Agonist activity at dopamine D2 receptor (unknown origin) expressed in HEK293T cells co-expressing luciferase based cAMP biosensor assessed as inhibition of forskolin-mediated cAMP accumulation after 15 mins by microbeta luminescence counting assay; format: functional, cell-based
[10] = target: T4, Type-1 angiotensin II receptor (Homo sapiens, UniProt P30556); assay: Agonist activity at human AT1 receptor assessed as increase in beta-arrestin recruitment by chemiluminescent assay
T4 sequence (P30556 whole entry): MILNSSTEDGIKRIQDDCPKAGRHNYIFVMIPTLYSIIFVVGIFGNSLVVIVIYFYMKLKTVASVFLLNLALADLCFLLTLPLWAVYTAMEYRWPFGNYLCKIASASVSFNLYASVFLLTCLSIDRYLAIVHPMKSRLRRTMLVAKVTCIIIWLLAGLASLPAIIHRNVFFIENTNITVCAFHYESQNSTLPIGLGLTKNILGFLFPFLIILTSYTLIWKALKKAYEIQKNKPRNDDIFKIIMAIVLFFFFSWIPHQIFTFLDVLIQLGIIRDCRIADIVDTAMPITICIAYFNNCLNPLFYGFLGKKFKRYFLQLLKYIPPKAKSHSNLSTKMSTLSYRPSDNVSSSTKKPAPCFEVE

D(2) dopamine receptor [11] = target: T3, D(2) dopamine receptor; assay: Agonist activity at dopamine D2 receptor (unknown origin) assessed as increase in beta-arrestin-2 recruitment relative to control
D(2) dopamine receptor [12] = target: T3, D(2) dopamine receptor; assay: Agonist activity at dopamine D2 receptor (unknown origin) by cAMP accumulation assay relative to control; format: functional
[13] = target: Metabotropic glutamate receptor 5 (Homo sapiens, UniProt P41594); assay: Agonist activity at mGlu5 receptor (unknown origin) expressed in CHO cells assessed as increase in Gq-mediated PI hydrolysis after 45 mins by yttrium scintillation proximity assay; format: cell-based
CHO = assay: Cytoprotection against glutamate-induced cell death in CHO cells assessed as increase in cell viability by colorimetric assay; format: functional, cell-based; details: Cricetulus griseus
Apelin receptor [14] = target: T2, Apelin receptor; assay: Agonist activity at GFP10 tagged human APJ receptor expressed in HEK293 cells harboring Rluc2-Galpha0A/GFP10-Ggamma/Gbeta1 after 5 mins by BRET assay; format: cell-based
Apelin receptor [15] = target: T2, Apelin receptor; assay: Agonist activity at human APJ receptor expressed in HEK293 cells harboring Rluc2-beta-arrestin2 assessed as increase in beta-arrestin2 recruitment after 30 mins by BRET-based luciferase reporter gene assay; format: cell-based
Apelin receptor [16] = target: T2, Apelin receptor; assay: Agonist activity at GFP10 tagged human APJ receptor expressed in HEK293 cells harboring Rluc2-beta-arrestin1 assessed as increase in beta-arrestin1 recruitment after 30 mins by BRET-based luciferase reporter gene assay; format: cell-based
Apelin receptor [17] = target: T2, Apelin receptor; assay: Agonist activity at GFP10 tagged human APJ receptor expressed in HEK293 cells harboring Rluc2-Galphai1/GFP10-Ggamma/Gbeta1 after 5 mins by BRET assay; format: cell-based
[18] = target: T5, Kappa-type opioid receptor (Rattus norvegicus, UniProt P34975); assay: Agonist activity at GFP-tagged rat kappa opioid receptor expressed in HEK293 cells assessed as increase in beta-arrestin mediated p38 phosphorylation after 5 mins by Western blot analysis; format: cell-based
[19] = target: T5, Kappa-type opioid receptor; assay: Agonist activity at GFP-tagged rat kappa opioid receptor expressed in HEK293 cells assessed as increase in ERK1/2 phosphorylation after 5 mins by Western blot analysis; format: cell-based
[20] = target: T6, Endothelin receptor type B (Homo sapiens) (UniProt P24530)
T6 sequence (whole entry): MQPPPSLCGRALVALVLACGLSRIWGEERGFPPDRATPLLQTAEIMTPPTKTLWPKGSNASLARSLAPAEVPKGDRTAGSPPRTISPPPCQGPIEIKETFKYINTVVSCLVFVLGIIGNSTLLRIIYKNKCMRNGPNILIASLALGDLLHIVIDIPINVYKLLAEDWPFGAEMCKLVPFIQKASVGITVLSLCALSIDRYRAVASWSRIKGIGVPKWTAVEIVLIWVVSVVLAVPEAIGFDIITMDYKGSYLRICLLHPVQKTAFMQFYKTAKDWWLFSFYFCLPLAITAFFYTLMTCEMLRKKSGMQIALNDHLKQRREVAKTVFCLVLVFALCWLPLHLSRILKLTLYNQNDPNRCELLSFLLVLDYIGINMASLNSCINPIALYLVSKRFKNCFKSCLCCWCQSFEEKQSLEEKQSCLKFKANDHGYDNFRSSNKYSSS

[21] = target: T7, Endothelin-1 receptor (Homo sapiens) (UniProt P25101)
T7 sequence (whole entry): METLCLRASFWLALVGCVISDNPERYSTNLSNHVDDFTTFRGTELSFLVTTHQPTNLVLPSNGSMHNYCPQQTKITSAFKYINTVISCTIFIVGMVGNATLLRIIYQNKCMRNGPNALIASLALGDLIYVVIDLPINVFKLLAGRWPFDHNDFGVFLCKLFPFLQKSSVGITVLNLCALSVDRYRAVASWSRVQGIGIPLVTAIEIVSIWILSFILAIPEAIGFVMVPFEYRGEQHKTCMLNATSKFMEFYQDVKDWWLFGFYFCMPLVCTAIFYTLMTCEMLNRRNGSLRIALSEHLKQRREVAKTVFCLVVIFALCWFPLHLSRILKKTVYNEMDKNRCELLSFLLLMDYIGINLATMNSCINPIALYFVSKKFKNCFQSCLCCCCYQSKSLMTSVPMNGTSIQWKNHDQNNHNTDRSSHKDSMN

[22] = target: T1, Metabotropic glutamate receptor 5; assay: Positive allosteric modulation of rat mGlu5 receptor expressed in HEK293 cells assessed as increase in calcium mobilization; format: functional, cell-based
[23] = target: 5-hydroxytryptamine receptor 1B (Homo sapiens) (UniProt P28222)
[24] = target: 5-hydroxytryptamine receptor 1B (Homo sapiens) (UniProt P28222); remark: listed apart in the source
[25] = target: 5-hydroxytryptamine receptor 2B (Homo sapiens) (UniProt P41595)
[26] = target: 5-hydroxytryptamine receptor 2B (Homo sapiens) (UniProt P41595); remark: listed apart in the source
[27] = target: T8, Adenosine receptor A1 (Homo sapiens) (UniProt P30542)
T8 sequence (whole entry): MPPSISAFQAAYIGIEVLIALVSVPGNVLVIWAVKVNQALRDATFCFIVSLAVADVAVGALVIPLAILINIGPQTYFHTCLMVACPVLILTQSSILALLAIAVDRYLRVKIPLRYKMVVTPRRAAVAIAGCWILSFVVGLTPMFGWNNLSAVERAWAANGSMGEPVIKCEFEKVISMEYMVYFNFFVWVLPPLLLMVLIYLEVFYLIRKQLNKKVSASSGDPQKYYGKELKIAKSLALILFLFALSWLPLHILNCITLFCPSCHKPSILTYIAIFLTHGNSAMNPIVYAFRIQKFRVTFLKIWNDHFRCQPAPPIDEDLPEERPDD

[28] = target: T8, Adenosine receptor A1 (Homo sapiens); assay: Agonist activity at adenosine A1 receptor (unknown origin) expressed in FlpIn-CHO cells assessed as increase in ERK1/2 phosphorylation; format: cell-based

T3 sequence (P14416 whole entry, the tested form may be a part): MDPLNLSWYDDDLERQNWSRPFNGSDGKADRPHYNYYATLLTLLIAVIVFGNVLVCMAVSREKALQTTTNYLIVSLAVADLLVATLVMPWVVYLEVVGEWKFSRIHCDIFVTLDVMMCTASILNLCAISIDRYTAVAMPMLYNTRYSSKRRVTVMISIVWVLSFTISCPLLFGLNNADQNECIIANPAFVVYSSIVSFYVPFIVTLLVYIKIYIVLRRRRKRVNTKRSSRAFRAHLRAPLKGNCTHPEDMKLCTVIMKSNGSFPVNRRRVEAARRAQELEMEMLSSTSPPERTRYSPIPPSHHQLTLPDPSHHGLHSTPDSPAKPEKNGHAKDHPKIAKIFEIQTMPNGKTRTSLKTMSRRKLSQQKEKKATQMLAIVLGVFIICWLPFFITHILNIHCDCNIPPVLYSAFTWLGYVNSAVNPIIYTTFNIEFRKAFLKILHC
T5 sequence (P34975 whole entry): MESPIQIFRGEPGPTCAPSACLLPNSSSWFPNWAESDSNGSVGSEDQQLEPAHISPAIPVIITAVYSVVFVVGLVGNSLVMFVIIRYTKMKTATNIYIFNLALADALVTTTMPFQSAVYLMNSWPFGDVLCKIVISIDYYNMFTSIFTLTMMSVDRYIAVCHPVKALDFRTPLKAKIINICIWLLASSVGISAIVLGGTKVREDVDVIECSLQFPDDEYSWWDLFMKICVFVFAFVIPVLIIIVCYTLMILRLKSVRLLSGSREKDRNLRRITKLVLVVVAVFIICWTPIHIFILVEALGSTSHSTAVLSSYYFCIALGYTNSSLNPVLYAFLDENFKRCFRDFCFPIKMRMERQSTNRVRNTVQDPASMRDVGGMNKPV
T1 sequence (P31424 whole entry): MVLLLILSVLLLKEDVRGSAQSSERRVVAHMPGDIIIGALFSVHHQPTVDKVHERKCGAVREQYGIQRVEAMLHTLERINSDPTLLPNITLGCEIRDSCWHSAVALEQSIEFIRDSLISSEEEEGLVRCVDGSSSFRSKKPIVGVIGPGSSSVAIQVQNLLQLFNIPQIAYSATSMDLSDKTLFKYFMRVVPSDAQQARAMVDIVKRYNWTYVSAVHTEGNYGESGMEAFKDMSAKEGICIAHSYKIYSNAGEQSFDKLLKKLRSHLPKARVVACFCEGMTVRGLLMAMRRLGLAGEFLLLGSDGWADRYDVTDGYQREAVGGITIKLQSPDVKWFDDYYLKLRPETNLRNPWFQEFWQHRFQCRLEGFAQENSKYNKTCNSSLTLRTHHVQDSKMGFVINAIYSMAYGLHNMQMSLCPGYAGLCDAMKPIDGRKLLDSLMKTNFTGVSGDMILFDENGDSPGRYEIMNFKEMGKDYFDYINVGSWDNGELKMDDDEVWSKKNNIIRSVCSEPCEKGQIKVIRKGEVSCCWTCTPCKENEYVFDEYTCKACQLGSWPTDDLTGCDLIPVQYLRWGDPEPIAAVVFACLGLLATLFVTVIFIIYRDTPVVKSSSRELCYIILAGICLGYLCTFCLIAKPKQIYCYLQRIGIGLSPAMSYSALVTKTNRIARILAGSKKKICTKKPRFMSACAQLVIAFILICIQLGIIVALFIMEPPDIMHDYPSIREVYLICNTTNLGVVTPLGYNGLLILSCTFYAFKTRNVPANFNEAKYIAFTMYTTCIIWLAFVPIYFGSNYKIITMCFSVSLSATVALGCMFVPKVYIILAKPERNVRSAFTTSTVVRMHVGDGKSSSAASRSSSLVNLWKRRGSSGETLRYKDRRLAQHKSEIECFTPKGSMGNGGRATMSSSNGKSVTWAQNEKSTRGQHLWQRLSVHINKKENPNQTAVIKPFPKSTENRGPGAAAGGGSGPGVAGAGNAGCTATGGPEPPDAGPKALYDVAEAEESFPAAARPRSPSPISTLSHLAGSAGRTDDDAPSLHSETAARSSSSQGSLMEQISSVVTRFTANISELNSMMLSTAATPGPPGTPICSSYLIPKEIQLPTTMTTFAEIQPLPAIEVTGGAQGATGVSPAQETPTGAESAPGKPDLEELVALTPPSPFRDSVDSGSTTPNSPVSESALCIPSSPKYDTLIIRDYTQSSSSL
Chain of 5-hydroxytryptamine receptor 1B (Homo sapiens) (P28222 whole entry): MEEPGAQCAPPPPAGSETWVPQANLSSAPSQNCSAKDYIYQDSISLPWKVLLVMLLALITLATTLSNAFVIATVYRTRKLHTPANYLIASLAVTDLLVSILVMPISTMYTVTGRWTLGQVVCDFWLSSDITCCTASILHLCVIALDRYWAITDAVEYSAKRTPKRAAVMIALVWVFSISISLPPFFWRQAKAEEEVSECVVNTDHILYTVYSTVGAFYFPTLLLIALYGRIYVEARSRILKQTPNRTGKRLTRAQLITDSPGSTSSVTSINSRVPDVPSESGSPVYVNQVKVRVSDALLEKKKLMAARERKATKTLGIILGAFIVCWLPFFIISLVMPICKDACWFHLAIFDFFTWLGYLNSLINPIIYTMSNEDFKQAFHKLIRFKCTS
Chain of 5-hydroxytryptamine receptor 2B (Homo sapiens) (P41595 whole entry): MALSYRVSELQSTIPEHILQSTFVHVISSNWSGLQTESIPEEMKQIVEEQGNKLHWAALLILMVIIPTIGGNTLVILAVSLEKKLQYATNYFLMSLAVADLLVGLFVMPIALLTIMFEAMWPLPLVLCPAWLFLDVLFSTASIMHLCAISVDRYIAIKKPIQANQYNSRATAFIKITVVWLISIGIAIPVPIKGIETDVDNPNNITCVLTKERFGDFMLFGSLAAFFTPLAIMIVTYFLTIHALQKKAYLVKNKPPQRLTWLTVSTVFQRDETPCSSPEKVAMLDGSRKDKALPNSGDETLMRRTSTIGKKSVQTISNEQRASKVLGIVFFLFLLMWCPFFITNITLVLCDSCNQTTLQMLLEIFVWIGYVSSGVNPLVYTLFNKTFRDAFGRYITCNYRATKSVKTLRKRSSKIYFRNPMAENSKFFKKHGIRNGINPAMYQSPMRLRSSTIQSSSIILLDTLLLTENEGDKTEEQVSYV
Chain of Metabotropic glutamate receptor 5 (Homo sapiens, UniProt P41594) (P41594 whole entry): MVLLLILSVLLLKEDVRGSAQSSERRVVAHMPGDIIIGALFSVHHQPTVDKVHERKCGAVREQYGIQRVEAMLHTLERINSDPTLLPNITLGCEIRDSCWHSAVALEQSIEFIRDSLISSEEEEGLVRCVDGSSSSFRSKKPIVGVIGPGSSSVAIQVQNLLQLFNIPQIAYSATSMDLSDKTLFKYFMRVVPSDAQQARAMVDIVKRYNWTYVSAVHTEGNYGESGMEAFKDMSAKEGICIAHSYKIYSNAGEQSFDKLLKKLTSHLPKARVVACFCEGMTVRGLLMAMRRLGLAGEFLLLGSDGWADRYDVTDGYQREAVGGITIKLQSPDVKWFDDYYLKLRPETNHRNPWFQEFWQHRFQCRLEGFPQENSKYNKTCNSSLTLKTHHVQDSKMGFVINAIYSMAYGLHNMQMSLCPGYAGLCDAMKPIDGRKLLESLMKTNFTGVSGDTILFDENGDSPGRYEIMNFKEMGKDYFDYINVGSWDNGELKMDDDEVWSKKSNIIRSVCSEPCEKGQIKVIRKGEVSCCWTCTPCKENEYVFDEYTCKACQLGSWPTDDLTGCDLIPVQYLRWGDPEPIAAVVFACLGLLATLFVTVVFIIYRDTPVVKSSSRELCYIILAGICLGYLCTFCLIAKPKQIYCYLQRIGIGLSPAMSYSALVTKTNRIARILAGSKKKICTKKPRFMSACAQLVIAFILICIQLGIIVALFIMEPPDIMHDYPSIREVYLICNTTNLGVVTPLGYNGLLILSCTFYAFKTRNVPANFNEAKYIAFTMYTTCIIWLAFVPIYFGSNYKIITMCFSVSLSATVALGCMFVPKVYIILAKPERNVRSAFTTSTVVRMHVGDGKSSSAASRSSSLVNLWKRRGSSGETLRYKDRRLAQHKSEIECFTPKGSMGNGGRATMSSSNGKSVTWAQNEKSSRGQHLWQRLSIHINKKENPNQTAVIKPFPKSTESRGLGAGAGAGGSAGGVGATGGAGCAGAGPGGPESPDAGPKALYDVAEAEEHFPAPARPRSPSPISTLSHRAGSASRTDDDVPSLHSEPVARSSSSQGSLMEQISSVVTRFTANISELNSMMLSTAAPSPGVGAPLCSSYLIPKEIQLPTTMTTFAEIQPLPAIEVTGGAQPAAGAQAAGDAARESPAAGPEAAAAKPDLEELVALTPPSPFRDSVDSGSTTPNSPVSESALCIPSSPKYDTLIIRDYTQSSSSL

## O=C(Nc1ccc(Cl)cc1CN1C(=O)c2cccc(F)c2C1=O)c1ccccn1
[1]
  EC50: 0.214 µM

## CSCC[C@H](NC(=O)[C@@H]1CCCN1C(=O)CNC(=O)[C@H](CCCCN)NC(=O)[C@H](Cc1cnc[nH]1)NC(=O)[C@@H]1CSSC[C@H](N)C(=O)N[C@@H](CCCNC(=N)N)C(=O)N2CCC[C@H]2C(=O)N[C@@H](CCCNC(=N)N)C(=O)N[C@@H](CC(C)C)C(=O)N1)C(=O)N1CCC[C@H]1C(=O)N[C@@H](Cc1ccccc1)C(=O)O (H-CRPRLCHKGPMPF-OH; disulfide 1-6)
Apelin receptor [2]
  EC50: 0.692 µM
Apelin receptor [3]
  EC50: 2.14 µM
Apelin receptor [4]
  EC50: 0.000288 µM

## Cc1cc2c(N3CCN(CCCCOc4ccc5c(c4)NC(=O)CC5)CC3)cccc2n1C
D(2) dopamine receptor [5]
  Emax: 78%
D(2) dopamine receptor [6]
  EC50: 0.0029 µM
D(2) dopamine receptor [7]
  Emax: 60%
D(2) dopamine receptor [8]
  Ratio EC50: 20
D(2) dopamine receptor [9]
  EC50: 0.023 µM

## CC[C@H](C)[C@H](NC(=O)[C@@H](NC(=O)[C@H](CCCNC(=N)N)NC(=O)CNC)C(C)C)C(=O)N[C@@H](CCCCN)CN[C@@H](Cc1cnc[nH]1)C(=O)N1CCC[C@H]1C(=O)N[C@H](C)C(=O)O (H-[Sar]RVI-X1)
[10]
  EC50: 0.017 µM

## CN(CCCCNC(=O)c1cc2ccccc2[nH]1)[C@@H]1Cc2cccc3[nH]c(=O)n(c23)C1
D(2) dopamine receptor [11]
  Activity: 66%
D(2) dopamine receptor [12]
  Activity: 96%

## N[C@@H](Cn1oc(=O)[nH]c1=O)C(=O)O [QUISQUALATE]
[13]
  EC50: 0.63 µM

## N[C@@H](CCC(=O)O)C(=O)O [GLUTAMIC ACID]
CHO
  EC50: 153 µM

## CC(C)C[C@H](NC(=O)[C@H](CCCCN)NC(=O)[C@@H]1CCCN1C(=O)[C@@H](N)CCCCN)C(=O)N[C@@H](CO)C(=O)N[C@@H]1CC=CCC[C@@H](C(=O)N[C@@H](Cc2ccc(OCc3ccccc3)cc2)C(=O)O)NC(=O)[C@@H]2CCCN2C(=O)CNC(=O)[C@H](CCCCN)NC1=O
Apelin receptor [14]
  EC50: 0.05 µM
Apelin receptor [15]
  EC50: > 10 µM
Apelin receptor [16]
  EC50: > 10 µM
Apelin receptor [17]
  EC50: 0.056 µM

## CN(C(=O)/C=C/c1ccoc1)[C@@H]1CC[C@@]2(O)[C@H]3Cc4ccc(O)c5c4[C@@]2(CCN3CC2CC2)[C@H]1O5 [NALFURAFINE]
[18]
  EC50: 0.0052 µM
[19]
  EC50: 0.0005 µM

## COc1ccccc1Oc1c(NS(=O)(=O)c2ccc(C(C)(C)C)cc2)nc(-c2ncccn2)nc1OCCO
[20]
  pKb: 6.15
[21]
  pKb: 8.01

## O=C(c1ccc(F)cc1)N1CCc2nc(COc3ccccc3)oc2C1
[22]
  EC50: 0.235 µM

## CN1C[C@H](C(=O)N[C@]2(C)O[C@@]3(O)[C@@H]4CCCN4C(=O)[C@H](Cc4ccccc4)N3C2=O)C=C2c3cccc4[nH]cc(c34)C[C@H]21
[23]
  log(Tau/KA): 8.53
[24]
  log(Tau/KA): 7.82
[25]
  log(Tau/KA): 7.05
[26]
  log(Tau/KA): 5.95

## C[C@H](Cc1ccccc1)Nc1ncnc2c1ncn2[C@@H]1O[C@H](CO)[C@@H](O)[C@H]1O
[27]
  log(Tau/KA): 8.96
[28]
  log(Tau/KA): 9.5
